Reference: patent US6974867B2, “Compositions and methods for treating neoplastic disease using chemotherapy and radiation sensitizers” (Chiron Corporation, priority 2000, dated 2005)

Experiments:
KIAA0175 mRNA = test: Northern analysis of KIAA0175 mRNA after anti-sense oligonucleotide transfection; type: cell-based, human; settings: HT1080 cells; for level of KIAA0175 mRNA expression: 100 nM oligonucleotide, Northern analysis; for KIAA0175 mRNA expression over time: 24 to 72 hours after oligonucleotide administration
Method: HT 1080 cells express endogenous KIAA0175. These cells were transfected with either the FITC (negative control) or AKT1 (positive control) oligonucleotides), 1182, or 545 oligonucleotides. Briefly, 100 nM of the respective anti-sense oligonucleotide was mixed with lipitoid 1 transfection reagent (Huang et al., Chemistry and Biology 5(6):346-354 (1998)) in a 1:3 volume to volume ratio in OPTI-MEM (GibcoBRL). The mixture was added to the HT1080 cells in complete medium (EMEM, 10% heat inactivated fetal bovine serum (FBS), 2 mM L-Glutamine, 100 U/ml Penicillin, and […] Streptomycin) and the cells were incubated at 37° C. for ^˜4-5 hours in the presence of the anti-sense oligonucleotides before changing to fresh complete medium. Total RNA was extracted at day 1 or 24, 48, or 72 hours following transfection and mRNA levels of KIAA0175 were detected by Northern analysis. 20 μg of total RNA were subjected to electrophoresis on a denaturing agarose gel. RNA was transferred to nitrocellulose and KIAA0175 mRNA was detected by probing with a ^32P-labeled, 0.7 kb KIAA0175 cDNA fragment. To control for equal loading of individual lanes, the blot was stripped of the KIAA0175 probe and re-probed with a ^32P-labeled G3PDH cDNA probe obtained from Clontech.

p21 = test: Western analysis of p21 after γ-irradiation of transfected HT1080 cells; type: cell-based, human; settings: 10 Gy γ-irradiation 24 hours after transfection
Method: (§1) HT1080 cells expressing endogenous KIAA0175 were transfected with the KIAA0175 anti-sense oligonucleotide (1182) and the corresponding reverse control oligonucleotide (RC1182). After culture for 24-hours, the transfected cells were treated with 10 Gy of γ-irradiation. At various times after irradiation, cells were harvested and lysates prepared and subjected to SDS-PAGE. p53, Erk2, and p21 proteins were detected by Western analysis.

p53 [1] = test: Western analysis of p53 after γ-irradiation of transfected HT1080 cells; type: cell-based, human; settings: 10 Gy γ-irradiation 24 hours after transfection
Method: as §1

KIAA0175 [2] = test: Western analysis of KIAA0175 protein level after anti-sense transfection, HT1080 cells; type: cell-based, human
Description: (§2) In separate experiments, either HT1080 or HCT116 cells expressing endogenous KIAA0175 and p53 were transfected with either FITC, KIAA0175 anti-sense oligonucleotides (i.e. 545 or 1182), or the corresponding reverse control oligonucleotides (RC or RC545). Total cell lysates were fractionated by SDS-polyacrylamide gel electrophoresis and transferred to nitrocellulose membranes. Specific proteins were detected by Western analysis using antibodies to either KIAA0175 (rabbit polyclonal antisera), p53, Erk2, or p21 antibodies as indicated. Antibodies against p53, p21 and Erk2 were obtained from Santa Cruz Biotechnology, Inc. (Santa Cruz, Calif.).

p53 [3] = test: Western analysis of p53 protein level after anti-sense transfection, HT1080 cells; type: cell-based, human
Description: as §2

[4] = tested on: Breast Cancer Cell Line MDA-MB-231; test: LDH cytotoxicity assay, breast cancer cell line; type: cell-based
Method: (§3) The effect of KIAA0175 anti-sense molecules on cell sensitivity to chemotherapeutic drugs was tested on several cell lines using the lactate dehydrogenase (LDH) cytotoxicity assay essentially as follows:
(§4) Day 1: Cells were seeded in 4 separate 96 well plates, typically 5000 cells/well and incubated at 37° C. and 5% CO2.
(§5) Day 2: Cells were transfected with the KIA175-1182 and KIA175-545 anti-sense oligonucleotides (SEQ ID NOs:5 and 1, respectively) as well as the reverse complement controls, RC1182 and RC545 (SEQ ID NOs:6 and 2, respectively) essentially as described in Example 4, with and without drug. One plate (day 0) was left untransfected as a seeding control.
(§6) The transfection was carried out using a lipid vehicle for delivery as described in WO 01/16306, hereby incorporated in its entirety. Briefly, the transfection used agents known as “lipitoids” and “cholesteroids”, described, for example, in PCT publications WO 01/16306, WO 98/06437 and WO 99/08711, based on U.S. Ser. No. 60/023,867, 60/054,743, and 09/132,808, which are also hereby incorporated by reference. These lipid-cationic peptoid conjugates are shown in these references to be effective reagents for the delivery of plasmid DNA to cells in vitro. Any of the carriers described in the above-referenced applications are suitable for use in transfection of the oligonucleotides described herein.
(§7) Depending on the cell type, different lipid vehicles were used for different lengths of time for transfection. […] The transfection was carried out in complete medium and the final anti-sense oligonucleotide concentration was 300 nM per well. In the wells with drug, the drug was added to the culture at the beginning of the transfection.
(§8) Starting on Day 3: Cells were recovered, 1 plate/day and release of LDH into the supernatant was measured using a kit from Roche according to manufacturer's instructions (Roche Diagnostics, Basel, Switzerland) (data labeled as day 1, 2, 3).
(§9) For each sample, the data are expressed as a ratio of the level of LDH in wells containing cells transfected with anti-sense (AS) over the level of LDH in wells containing cells transfected with the reverse complement controls (RC) (ie:AS/RC). Thus, cells that become sensitized to drug will die and release LDH into the supernatant. An increase in the ratio signifies increased cell death and thus, higher levels of LDH in the media. A ratio higher than 1.5 signifies an effect of the anti-sense over the reverse complement control.

[5] = tested on: Normal Breast Epithelial Cell Line 184B5; test: LDH cytotoxicity assay, normal breast epithelial cell line; type: cell-based; settings: for effect on cell death (LDH): 184B5 normal breast epithelial cell line
Method: as §3, §4, §5, §6, §7, §8, §9

HT1080 cells = test: Cell cycle arrest upon γ-irradiation in transfected HT1080 cells; type: cell-based, human
Method: Because both p53 and p21 are involved in the G1 to S phase cell cycle transition, the following experiments were performed in order to assess the effect of KIAA0175 anti-sense molecules on cell cycle regulation.
Table 1 discloses the percentage of HT1080 cells in each stage of the cell cycle at various times following exposure to γ-irradiation. By 24 hours, cells were arrested in both the G1 and G2 phases as evidenced by the elevated percentage of cells in G0/G1 and G2/M phases as compared to the diminished percentage of cells in the S phase.
Table 2 discloses the effect of KIAA0175 anti-sense molecules on γ-irradiation induced cell-cycle arrest. In cells transfected with anti-sense molecules, there was a reduction in the accumulation of cells in the G1 phase and a minimized reduction in the number of cells in the S phase as compared to cells transfected with a “reverse-control” anti-sense molecule as control.

HCT116 cells = test: Colony (Crystal Violet) viability assay, sensitization to γ-irradiation and hydroxyurea; type: cell-based; settings: 11 days of culture, compared to RC-treated cells
Method: γ-irradiation treatment was performed as follows: On day one, HCT116 cells were transfected with either the KIAA0175 anti-sense molecule No. 545 (545) or with the 545 reverse control molecule (RC) and plated onto tissue-culture plates. On day three, one plate each of 545 and RC transfected cells were treated with γ-irradiation (2, 4 or 8 Gy) and cultured an additional 2 hours. The γ-irradiation treated cells as well as untreated control HCT116 cells were trypsinized, counted and seeded in triplicate onto 6-well tissue culture plates to a density of 1000 cells per well. After 11 days of culture, the cells were assayed for viability by staining with Crystal Violet. Total numbers of cell colonies were then counted.
Hydroxyurea treatment was performed as follows: On day one, HCT116 cells were transfected with either the KIAA0175 anti-sense molecule No. 545 (545) or with the 545 reverse control molecule (RC) and plated onto tissue-culture plates. The following day (day two), one plate each of 545 and RC transfected cells were treated with hydroxyurea (1 mM final concentration) and cultured an additional 24 hours. On day three, the hydroxyurea treated cells as well as untreated control HCT116 cells were trypsinized, counted and seeded in triplicate onto 6-well tissue culture plates to a density of 1000 cells per well. […] Total numbers of cell colonies were then counted.

KIAA0175 [6] = test: KIAA0175 protein levels after exposure of cells to hydroxyurea (Western); settings: recombinant HA-fusion protein or endogenously expressed
[7] = MDA-MB-231, Day 0 (untransfected seeding control plate), 300 nM oligonucleotide
[8] = MDA-MB-231, Day 1, 300 nM oligonucleotide, ratio higher than 1.5 signifies an effect
[9] = MDA-MB-231, Day 2, 300 nM oligonucleotide, ratio higher than 1.5 signifies an effect
[10] = MDA-MB-231, Day 3, 300 nM oligonucleotide, ratio higher than 1.5 signifies an effect
[11] = 184B5, Day 0 (untransfected seeding control plate), 300 nM oligonucleotide
[12] = 184B5, Day 1, 300 nM oligonucleotide, ratio higher than 1.5 signifies an effect
[13] = 184B5, Day 2, 300 nM oligonucleotide, ratio higher than 1.5 signifies an effect
[14] = 184B5, Day 3, 300 nM oligonucleotide, ratio higher than 1.5 signifies an effect
[15] = MDA-MB-231 metastatic breast cancer cells

## FITC: negative control oligonucleotide 5′-TCTGCTGCTGTCGACAACGAGTGTC-3′ (FITC label, position not given here) [reference compound]
KIAA0175 mRNA
  level of KIAA0175 mRNA expression: ineffective in reducing KIAA0175 mRNA expression
  KIAA0175 mRNA expression over time: no effect

## KIA175-736: KIAA0175 anti-sense oligonucleotide 5′-TGCCCATGCTCCAAACATCTGCCTC-3′ (listed as DNA, chemistry not given here)
KIAA0175 mRNA
  level of KIAA0175 mRNA expression: effective in reducing the level of KIAA0175 mRNA expression

## RC736: reverse control oligonucleotide 5′-CTCCGTCTACAAACCTCGTACCCGT-3′ (listed as DNA, chemistry not given here) [reference compound]
KIAA0175 mRNA
  level of KIAA0175 mRNA expression: ineffective in reducing KIAA0175 mRNA expression

## AKT: positive control oligonucleotide 5′-CCATAGTGAGGTTGCATCTGGTGCC-3′ (listed as DNA, chemistry not given here) [reference compound]
KIAA0175 mRNA
  level of KIAA0175 mRNA expression: ineffective in reducing KIAA0175 mRNA expression

## KIA175-1182: KIAA0175 anti-sense oligonucleotide 5′-GGGTAGCACTGGCTTGTCCACAGGA-3′ (listed as DNA, chemistry not given here)
p21
  p21 protein levels after γ-irradiation: reduction of p21 protein levels
p53 [1]
  γ-irradiation induced increase in p53 protein level: blocked the γ-irradiation induced increase in p53 protein level
KIAA0175 [2]
  time of maximal anti-sense activity, KIAA0175 protein: 48 h
p53 [3]
  time of maximal anti-sense activity, p53 protein: 48 h
[4]; [7]
  LDH ratio AS/RC: 0.76
[4]; [8]
  LDH ratio AS/RC: 2.04
[4]; [9]
  LDH ratio AS/RC: 1.67
[4]; [10]
  LDH ratio AS/RC: 1.52
[5]; [11]
  LDH ratio AS/RC: 0.0000
[5]; [12]
  LDH ratio AS/RC: 1.0223
[5]; [13]
  LDH ratio AS/RC: 0.9065
[5]; [14]
  LDH ratio AS/RC: 1.0663
[5]
  effect on cell death (LDH): neither KIA175-1182 nor KIA175-545 has an effect
KIAA0175 mRNA
  level of KIAA0175 mRNA expression: effective in reducing the level of KIAA0175 mRNA expression
  KIAA0175 mRNA expression over time: increased gradually
HT1080 cells; + γ-irradiation
  percentage of cells in G0-G1: 39.3%
  percentage of cells in G2-M: 42.17%
  percentage of cells in S: 18.6%
HT1080 cells; − γ-irradiation
  percentage of cells in G0-G1: 47.4%
  percentage of cells in G2-M: 26.8%
  percentage of cells in S: 25.7%

## KIA175-545: KIAA0175 anti-sense oligonucleotide 5′-GAGGTCCCTGTGAGCATAGCCCTGG-3′ (listed as DNA, chemistry not given here)
[4]; [7]
  LDH ratio AS/RC: 0.84
[4]; [8]
  LDH ratio AS/RC: 1.05
[4]; [9]
  LDH ratio AS/RC: 1.37
[4]; [10]
  LDH ratio AS/RC: 1.62
[4]; [15]
  sensitization to the effects of Campthesin (CPT): sensitizes
  sensitization to the effects of Cisplatin: sensitizes
  sensitization to the effects of Doxorubicin (Doxo): did not appear to sensitize
[5]; [11]
  LDH ratio AS/RC: 0.0000
[5]; [12]
  LDH ratio AS/RC: 1.1152
[5]; [13]
  LDH ratio AS/RC: 1.1258
[5]; [14]
  LDH ratio AS/RC: 1.2934
[5]
  effect on cell death (LDH): neither KIA175-1182 nor KIA175-545 has an effect
KIAA0175 mRNA
  level of KIAA0175 mRNA expression: effective in reducing the level of KIAA0175 mRNA expression
  KIAA0175 mRNA expression over time: increased gradually
HCT116 cells; hydroxyurea 1 mM 24 hours
  sensitivity to hydroxyurea (number of viable colonies): increased the sensitivity of HCT116 cells to hydroxyurea
HCT116 cells; γ-irradiation 2, 4 or 8 Gy
  sensitivity to γ-irradiation (number of viable colonies): increased the sensitivity of HCT116 cells to γ-irradiation

## RC1182: reverse control oligonucleotide 5′-AGGACACCTGTTCGGTCACGATGGG-3′ (listed as DNA, chemistry not given here) [reference compound]
p53 [1]
  γ-irradiation induced increase in p53 protein level: increase in p53 protein level observed
KIAA0175 mRNA
  level of KIAA0175 mRNA expression: ineffective in reducing KIAA0175 mRNA expression
HT1080 cells; + γ-irradiation
  percentage of cells in G0-G1: 52.5%
  percentage of cells in G2-M: 32.6%
  percentage of cells in S: 14.9%
HT1080 cells; − γ-irradiation
  percentage of cells in G0-G1: 47.6%
  percentage of cells in G2-M: 19.4%
  percentage of cells in S: 33%

## NC(=O)NO [hydroxyurea]
KIAA0175 [6]
  KIAA0175 protein levels: caused an increase in KIAA0175 protein levels
